{"source": "patent US20100184677A1", "about": "“USE OF THE HUMAN PANCREATIC POLYPEPTIDE AS A THERAPEUTIC AGENT” (priority 2007, published 2010)", "key": {"HepG2-2.2.15 cells": {"system": "HepG2-2.2.15 cells", "test": "Cell viability (dye uptake assay) in HepG2-2.2.15 cells", "details": "HepG2-2.2.15 cells; test peptide 10 micrograms per ml; dye uptake assay (% cell control)"}, "[1]": {"test": "Cell viability (dye uptake assay) in HepG2-2.2.15 cells", "details": "human"}, "in vitro [2]": {"test": "in vitro", "details": "human"}, "MRSA": {"system": "MRSA", "details": "5 micrograms per ml"}, "in vitro [3]": {"test": "in vitro", "details": "human, MRC-5 cells (embryonal lung fibroblasts)"}, "Pseudomonas aeruginosa": {"system": "Pseudomonas aeruginosa", "type": "cell-based", "details": "5 micrograms per ml"}, "Streptococcus pneumoniae": {"system": "Streptococcus pneumoniae", "type": "cell-based", "details": "5 micrograms per ml"}, "MRC-5 cells": {"system": "MRC-5 cells", "details": "human, 6 days"}}, "data": [{"smiles": "Nc1ccn([C@@H]2CS[C@H](CO)O2)c(=O)n1", "note": "[3TC, Lamivudine, reference compound]", "values": [{"measurement": "% Cell Viability", "setting": "HepG2-2.2.15 cells", "value": 95.8, "unit": "%"}]}, {"smiles": "CC[C@H](C)[C@H](NC(=O)[C@H](Cc1ccc(O)cc1)NC(=O)[C@H](CCCNC(=N)N)NC(=O)[C@H](CCCNC(=N)N)NC(=O)[C@H](CC(C)C)NC(=O)[C@H](CC(=O)O)NC(=O)[C@H](C)NC(=O)[C@H](C)NC(=O)[C@H](Cc1ccc(O)cc1)NC(=O)[C@H](CCC(N)=O)NC(=O)[C@H](C)NC(=O)[C@H](CCSC)NC(=O)[C@H](CCC(N)=O)NC(=O)[C@H](CCC(=O)O)NC(=O)[C@@H]1CCCN1C(=O)[C@@H](NC(=O)[C@H](C)NC(=O)[C@H](CC(N)=O)NC(=O)[C@H](CC(=O)O)NC(=O)CNC(=O)[C@@H]1CCCN1C(=O)[C@H](Cc1ccc(O)cc1)NC(=O)[C@@H](NC(=O)[C@@H]1CCCN1C(=O)[C@H](CCC(=O)O)NC(=O)[C@H](CC(C)C)NC(=O)[C@@H]1CCCN1C(=O)[C@H](C)N)C(C)C)[C@@H](C)O)C(=O)N[C@@H](CC(N)=O)C(=O)N[C@@H](CCSC)C(=O)N[C@@H](CC(C)C)C(=O)N[C@H](C(=O)N[C@@H](CCCNC(=N)N)C(=O)N1CCC[C@H]1C(=O)N[C@@H](CCCNC(=N)N)C(=O)N[C@@H](Cc1ccc(O)cc1)C(N)=O)[C@@H](C)O", "note": "[Pancreatic polypeptide]", "values": [{"measurement": "viability at 144 h, 10 micrograms per ml", "setting": "[1]", "value": 92.5, "unit": "%"}, {"measurement": "viability at 10 micrograms per ml", "setting": "in vitro [2]", "value": 90.2, "unit": "%"}, {"measurement": "% inhibition", "setting": "MRSA", "value": 0.0, "unit": "%"}, {"measurement": "viability at 144 h", "setting": "in vitro [3]", "value": 100, "unit": "%"}, {"measurement": "% inhibition", "setting": "Pseudomonas aeruginosa", "value": 0.0, "unit": "%"}, {"measurement": "% inhibition", "setting": "Streptococcus pneumoniae", "value": 0.0, "unit": "%"}]}, {"smiles": "Nc1nc(O)c2ncn(COC(CO)CO)c2n1", "note": "[Ganciclovir]", "values": [{"measurement": "% Cell Viability", "setting": "MRC-5 cells", "value": 100, "unit": "%"}]}]}
